Measured values taken from BindingDB's records for PubMed 7903385 (Creighton University, 1993).

Biological target: T1, Alpha-2A adrenergic receptor (Sus scrofa, UniProt P18871)
T1 sequence (P18871 whole entry): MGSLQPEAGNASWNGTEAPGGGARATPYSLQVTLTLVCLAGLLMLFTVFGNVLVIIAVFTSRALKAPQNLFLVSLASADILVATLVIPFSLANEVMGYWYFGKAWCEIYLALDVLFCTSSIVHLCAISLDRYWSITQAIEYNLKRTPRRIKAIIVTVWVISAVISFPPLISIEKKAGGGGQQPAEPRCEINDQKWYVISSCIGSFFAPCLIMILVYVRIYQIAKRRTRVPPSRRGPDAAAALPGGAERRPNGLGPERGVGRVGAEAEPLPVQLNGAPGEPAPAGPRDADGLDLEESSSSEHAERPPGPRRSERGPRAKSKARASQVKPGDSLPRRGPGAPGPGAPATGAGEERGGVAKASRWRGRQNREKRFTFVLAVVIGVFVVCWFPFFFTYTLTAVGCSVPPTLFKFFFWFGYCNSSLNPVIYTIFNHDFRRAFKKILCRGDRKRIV

C=Cc1sc2ccc(Cl)c3c2c1CN(C)CC3 [SKF 104856]
Ki: 54.5 nM
